# In paper PMC11363342 (ACS Central Science, 2024):
# Tested on: SARS-CoV-2 variants Alpha, Beta, Delta, Omicron BA.1, and XBB.1.5
# Format: cell-based
smiles,measurement,value
"O=S1(=O)O[C@@H]2[C@H](O)[C@@H](O)[C@H](O)[C@@H](CO)[C@@H]2O1 [Compound 11, 1,6-epi-cyclophellitol cyclosulfate]","reduction in infectious virus titer, SARS-CoV-2 variants",~100 fold
